# Where two headings read alike, the source gives them in different places.
# How the values were obtained:
# S. aureus = test: Serial twofold agar dilution (Mueller-Hinton agar), S. aureus; assay type: cell-based; conditions: Staphylococcus aureus
# Description: (§1) The Minimum Inhibitory Concentrations (MIC) for sodium 6-[D-(-)-α-phenyl-α-(7-hydroxy-4-oxo-4H-pyrimido[1,2-b]pyridazin-3-ylcarboxamido)acetamido]penicillanate (BB-P598) and sulbenicillin were determined by the serial twofold agar dilution method using Steers' apparatus on Mueller-Hinton agar plates against 31 test organisms for the primary screening (Table 1) and also against 61 strains of Pseudomonas aeruginosa for the secondary evaluation (Table 2).
# (§2) Minimum Inhibitory Concentrations (MIC) for sodium 6-[D-(-)-α-phenyl-α-(7-hydroxy-4-oxo-4H-pyrimido[1,2-b]pyridazin-3-ylcarboxamido)acetamido]pencillanate (BB-P598), sodium 6-[D-(-)-α-(4-hydroxyphenyl)-α-(7-hydroxy-4-oxo-4H-pyrimido[1,2-b]pyridazin-3-ylcarboxamido)acetamido]-penicillanate (BB-P642) and carbenicillin were determined by the serial twofold agar dilution method using Steers' apparatus on Mueller-Hinton agar plates against 31 tests organisms (Table 8) and also against 61 strains of Pseudomonas aeruginosa (Table 9). In terms of mean % relative activity compared with carbenicillin, compounds BB-B598 and BB-P642 were 856% and 1319% as active as carbenicillin against the 61 Pseudomonas strains of Table 9.
# E. coli = test: Serial twofold agar dilution (Mueller-Hinton agar), E. coli; assay type: cell-based; conditions: Escherichia coli
# Description: as §1, §2
# K. pneumoniae = test: Serial twofold agar dilution (Mueller-Hinton agar), K. pneumoniae; assay type: cell-based; conditions: Klebsiella pneumoniae, K. pneumoniae A9977, Table 8, read-out: MIC
# Description: as §1, §2
# Klebsiella sp. = test: Serial twofold agar dilution (Mueller-Hinton agar), Klebsiella sp.; assay type: cell-based; conditions: Klebsiella sp. A20452, Mueller-Hinton agar, Table 8, read-out: MIC
# Description: as §1, §2
# E. cloacae = test: Serial twofold agar dilution (Mueller-Hinton agar), E. cloacae; assay type: cell-based; conditions: Enterobacter cloacae
# Description: as §1, §2
# P. mirabilis = test: Serial twofold agar dilution (Mueller-Hinton agar), P. mirabilis; assay type: cell-based; conditions: Proteus mirabilis, P. mirabilis A9900; Mueller-Hinton agar; Table 8; read-out: MIC
# Description: as §1, §2
# P. vulgaris = test: Serial twofold agar dilution (Mueller-Hinton agar), P. vulgaris; assay type: cell-based; conditions: Proteus vulgaris, P. vulgaris A9539, Table 8, read-out: MIC
# Description: as §1, §2
# P. morganii = test: Serial twofold agar dilution (Mueller-Hinton agar), P. morganii; assay type: cell-based; conditions: Morganella morganii, P. morganii A9553, Table 8, read-out: MIC
# Description: as §1, §2
# S. enteritidis = test: Serial twofold agar dilution (Mueller-Hinton agar), S. enteritidis; assay type: cell-based; conditions: Salmonella enterica, S. enteritidis A9531, Table 8, read-out: MIC
# Description: as §1, §2
# S. marcescens = test: Serial twofold agar dilution (Mueller-Hinton agar), S. marcescens; assay type: cell-based; conditions: Serratia marcescens, S. marcescens A20019, Table 8
# Description: as §1, §2
# Pseudomonas aeruginosa = test: Serial twofold agar dilution (Mueller-Hinton agar), P. aeruginosa; assay type: cell-based; conditions: Pseudomonas aeruginosa
# Description: as §1, §2
# Pseudomonas sp. = test: Serial twofold agar dilution (Mueller-Hinton agar), Pseudomonas sp.; assay type: cell-based; conditions: Pseudomonas sp. A20358, Table 8, read-out: MIC
# Description: as §1, §2
# [1] = Mouse blood levels after subcutaneous administration; conditions: in vivo, sc, 20 mg/kg
# Description: Mouse blood levels of BB-[…] and BB-[…] were determined by subcutaneous administration of 20 mg/kg of the penicillin to groups of three mice. Blood samples collected from orbital sinuses were assayed by the paper disk agar-diffusion method on Sarcina lutea PC1 1001 plates.
structure (smiles),measurement,setting,value
"CC1(C)S[C@@H]2[C@H](NC(=O)C(C(=O)O)c3ccccc3)C(=O)N2[C@H]1C(=O)O (stereo partly drawn) [Carbenicillin, reference compound]",MIC,"S. aureus; S. aureus A15097, Table 8, read-out: MIC",50 µg/mL
same,MIC,"S. aureus; S. aureus A20239, Table 8, read-out: MIC",6.3 µg/mL
same,MIC,"S. aureus; S. aureus A20240, Table 8, read-out: MIC",3.1 µg/mL
same,MIC,"S. aureus; S. aureus A20701, Table 8, read-out: MIC",50 µg/mL
same,MIC,"S. aureus; S. aureus BX-1633 A9606, Table 8, read-out: MIC",6.3 µg/mL
same,MIC,"S. aureus; S. aureus Smith A9537, Table 8, read-out: MIC",0.2 µg/mL
same,MIC,"E. coli; E. coli A9635, Table 8, read-out: MIC",6.3 µg/mL
same,MIC,"E. coli; E. coli A9844, Table 8, read-out: MIC",0.4 µg/mL
same,MIC,"E. coli; E. coli A20366, Table 8, read-out: MIC",> 100 µg/mL
same,MIC,"E. coli; E. coli A20520, Table 8, read-out: MIC",1.6 µg/mL
same,MIC,"E. coli; E. coli A20664, Table 8, read-out: MIC",0.8 µg/mL
same,MIC,"E. coli; E. coli A20732, Table 8, read-out: MIC",> 100 µg/mL
same,MIC,"E. coli; E. coli A20898, Table 8, read-out: MIC",> 100 µg/mL
same,MIC,"E. coli; E. coli Juhl A15119, Table 8, read-out: MIC",3.1 µg/mL
same,MIC,"E. coli; E. coli NIHJ, Table 8, read-out: MIC",0.4 µg/mL
same,MIC,K. pneumoniae,3.1 µg/mL
same,MIC,Klebsiella sp.,6.3 µg/mL
same,MIC,"E. cloacae; E. cloacae A9656, Table 8",3.1 µg/mL
same,MIC,"E. cloacae; E. cloacae A9657, Table 8",25 µg/mL
same,MIC,"E. cloacae; E. cloacae A9659, Table 8",3.1 µg/mL
same,MIC,P. mirabilis,0.4 µg/mL
same,MIC,P. vulgaris,1.6 µg/mL
same,MIC,P. morganii,> 100 µg/mL
same,MIC,S. enteritidis,0.8 µg/mL
same,MIC,S. marcescens,3.1 µg/mL
same,MIC,"Pseudomonas aeruginosa; 61 strains of P. aeruginosa, Table 9, read-out: Geometric mean of MIC",30 µg/mL
same,MIC,"Pseudomonas aeruginosa; ATCC19660, Pa-14 ATCC 19660 A20325, Mueller-Hinton agar, Table 9, read-out: MIC",50 µg/mL
same,MIC,"Pseudomonas aeruginosa; GN315, Pa-27 GN315 A21294, Mueller-Hinton agar, Table 9, read-out: MIC",25 µg/mL
same,MIC,"Pseudomonas aeruginosa; GN4925, Pa-45 GN 4925, Mueller-Hinton agar, Table 9, read-out: MIC",100 µg/mL
same,MIC,"Pseudomonas aeruginosa; P. aeruginosa A9843, Mueller-Hinton agar, Table 8, read-out: MIC",25 µg/mL
same,MIC,"Pseudomonas aeruginosa; P. aeruginosa A9930, Mueller-Hinton agar, Table 8, read-out: MIC",25 µg/mL
same,MIC,"Pseudomonas aeruginosa; P. aeruginosa A15150, Mueller-Hinton agar, Table 8, read-out: MIC",25 µg/mL
same,MIC,"Pseudomonas aeruginosa; P. aeruginosa A20717, Mueller-Hinton agar, Table 8, read-out: MIC",100 µg/mL
same,MIC,"Pseudomonas aeruginosa; Pa-1 D15, Mueller-Hinton agar, Table 9, read-out: MIC",12.5 µg/mL
same,MIC,"Pseudomonas aeruginosa; Pa-3 1449 V.A A9930, Mueller-Hinton agar, Table 9, read-out: MIC",12.5 µg/mL
same,MIC,"Pseudomonas aeruginosa; Pa-5 M4865, K.C A15150, Mueller-Hinton agar, Table 9, read-out: MIC",6.3 µg/mL
same,MIC,"Pseudomonas aeruginosa; Pa-6 No. 5 Levitan A15194, Mueller-Hinton agar, Table 9, read-out: MIC",> 100 µg/mL
same,MIC,"Pseudomonas aeruginosa; Pa-7 A9843, Mueller-Hinton agar, Table 9, read-out: MIC",50 µg/mL
same,MIC,"Pseudomonas aeruginosa; Pa-10 A21479, Mueller-Hinton agar, Table 9, read-out: MIC",> 100 µg/mL
same,MIC,"Pseudomonas aeruginosa; Pa-12 A20653, Mueller-Hinton agar, Table 9, read-out: MIC",50 µg/mL
same,MIC,"Pseudomonas aeruginosa; Pa-15 A20717, Mueller-Hinton agar, Table 9, read-out: MIC",> 100 µg/mL
same,MIC,"Pseudomonas aeruginosa; Pa-16 #130 A20718, Mueller-Hinton agar, Table 9, read-out: MIC",6.3 µg/mL
same,MIC,"Pseudomonas aeruginosa; Pa-17 H6, D114, Mueller-Hinton agar, Table 9, read-out: MIC",12.5 µg/mL
same,MIC,"Pseudomonas aeruginosa; Pa-18 H8, D121, Mueller-Hinton agar, Table 9, read-out: MIC",3.1 µg/mL
same,MIC,"Pseudomonas aeruginosa; Pa-19 A20229, Mueller-Hinton agar, Table 9, read-out: MIC",12.5 µg/mL
same,MIC,"Pseudomonas aeruginosa; Pa-24 A20896, Mueller-Hinton agar, Table 9, read-out: MIC",> 100 µg/mL
same,MIC,"Pseudomonas aeruginosa; Pa-25 A20897, Mueller-Hinton agar, Table 9, read-out: MIC",3.1 µg/mL
same,MIC,"Pseudomonas aeruginosa; Pa-26 PS32, Mueller-Hinton agar, Table 9, read-out: MIC",0.4 µg/mL
same,MIC,"Pseudomonas aeruginosa; Pa-28 C.P.H. 10527/72, Mueller-Hinton agar, Table 9, read-out: MIC",50 µg/mL
same,MIC,"Pseudomonas aeruginosa; Pa-31 A20594, Mueller-Hinton agar, Table 9, read-out: MIC",12.5 µg/mL
same,MIC,"Pseudomonas aeruginosa; Pa-32 A20595, Mueller-Hinton agar, Table 9, read-out: MIC",50 µg/mL
same,MIC,"Pseudomonas aeruginosa; Pa-33 A20598, Mueller-Hinton agar, Table 9, read-out: MIC",12.5 µg/mL
same,MIC,"Pseudomonas aeruginosa; Pa-35, Mueller-Hinton agar, Table 9, read-out: MIC",100 µg/mL
same,MIC,"Pseudomonas aeruginosa; Pa-36, Mueller-Hinton agar, Table 9, read-out: MIC",1.6 µg/mL
same,MIC,"Pseudomonas aeruginosa; Pa-37 A20130, Mueller-Hinton agar, Table 9, read-out: MIC",50 µg/mL
same,MIC,"Pseudomonas aeruginosa; Pa-38 A20349, Mueller-Hinton agar, Table 9, read-out: MIC",100 µg/mL
same,MIC,"Pseudomonas aeruginosa; Pa-39 A20641, Mueller-Hinton agar, Table 9, read-out: MIC",12.5 µg/mL
same,MIC,"Pseudomonas aeruginosa; Pa-42 A21229, Mueller-Hinton agar, Table 9, read-out: MIC",> 100 µg/mL
same,MIC,"Pseudomonas aeruginosa; Pa-43 A21233, Mueller-Hinton agar, Table 9, read-out: MIC",50 µg/mL
same,MIC,"Pseudomonas aeruginosa; Pa-44 A21274, Mueller-Hinton agar, Table 9, read-out: MIC",50 µg/mL
same,MIC,"Pseudomonas aeruginosa; Pa-52 A9926, Mueller-Hinton agar, Table 9, read-out: MIC",50 µg/mL
same,MIC,"Pseudomonas aeruginosa; Pa-54 A20128, Mueller-Hinton agar, Table 9, read-out: MIC",50 µg/mL
same,MIC,"Pseudomonas aeruginosa; Pa-55 A20227, Mueller-Hinton agar, Table 9, read-out: MIC",50 µg/mL
same,MIC,"Pseudomonas aeruginosa; Pa-57 A20546, Mueller-Hinton agar, Table 9, read-out: MIC",50 µg/mL
same,MIC,"Pseudomonas aeruginosa; Pa-58 A20557, Mueller-Hinton agar, Table 9, read-out: MIC",50 µg/mL
same,MIC,"Pseudomonas aeruginosa; Pa-61 A20726, Mueller-Hinton agar, Table 9, read-out: MIC",50 µg/mL
same,MIC,"Pseudomonas aeruginosa; Pa-62 A21213, Mueller-Hinton agar, Table 9, read-out: MIC",> 100 µg/mL
same,MIC,"Pseudomonas aeruginosa; Pa-66 A21434, Mueller-Hinton agar, Table 9, read-out: MIC",50 µg/mL
same,MIC,"Pseudomonas aeruginosa; Pa-67 A21509, Mueller-Hinton agar, Table 9, read-out: MIC",50 µg/mL
same,MIC,"Pseudomonas aeruginosa; Pa-68 A21510, Mueller-Hinton agar, Table 9, read-out: MIC",50 µg/mL
same,MIC,"Pseudomonas aeruginosa; Pa-69 A21587, Mueller-Hinton agar, Table 9, read-out: MIC",100 µg/mL
same,MIC,Pseudomonas sp.,3.1 µg/mL
same,concentration at 0.25 h,[1],11500 ng/mL
same,concentration at 0.5 h,[1],9000 ng/mL
same,concentration at 1 h,[1],5800 ng/mL

# Source: US4231928A, “Antibacterial agents” (priority 1979, dated 1980)
